Source: patent US20120270844A1, “METHODS FOR TREATING ALZHEIMER'S DISEASE” (aFRAXis, Inc., priority 2009, published 2012)
pIC50: −log10 of the molar value.

Assays:
PAK2 = PAK2 (Homo sapiens, UniProt Q13177); test: Z'Lyte fluorescence-based (FRET) PAK kinase assay, PAK2; format: biochemical
Experimental: (§1) A fluorescence-based assay format is used to determine IC50 values of test compounds in vitro. Purified PAK kinase is incubated with ATP, and a test compound at various concentrations and a substrate peptide containing two fluorophores. In a second step, the reaction mix is incubated with a site-specific protease that cleaves non-phosphorylated bat not phosphorylated substrate peptide, disrupting the FRET signal generated by the two fluorophores in the cleaved peptide (Z′Lyte™ Kinase assay platform; Life Technologies).
(§2) Reagents: 50 mM HEPES, pH 7.5; 0.01% BRIJ-35; 10 nM MgCl1; 1 mM EGTA, 2 uM substrate peptide Ser/Thr20 (proprietary Life Technologies Sequence), PAK enzyme [2.42-30.8 ng for PAK1, 0.29-6 ng for PAK2, 1.5-20 ng for PAK3 and 0.1-0.86 ng for PAK4; actual enzyme amounts depend on lot activity of the enzyme preparation]
(§3) Test compounds are dissolved in DMSO at various concentrations; the final DMSO concentration in the assay reaction is 1%.
(§4) ATP concentration at Kin apparent is used in the assay [50 ┌M ATP for PAK1 assay, 75 ┌M ATP for PAK2 assay, 100 μM ATP for PAK3 assay, 5 μM ATP for PAK4 assay] in a total assay volume of 10 μl. Assay reactions are incubated at room temperature for 1 hr. Following the kinase reaction, 5 μl of 1:256 dilution of development solution A (Life Technologies) is added and the reaction mix is incubated for an additional 1 hr at room temperature.
(§5) Plates are analyzed in a standard fluorescence plate reader (Tecan or equivalent) using an excitation wavelength of 400 nn and emission wavelengths of 445 nm and 520 nm.
(§6) Inhibition of kinase reaction is determined by emission ratio=emission@445 nm/emission@520 nm
as §1, with “non-phosphorylated but” for “non-phosphorylated bat”, “peptide (Z'Lyte™” for “peptide (Z′Lyte™”, “assay platform” for “assay platform;”
as §2, with “mM MgCl2;” for “nM MgCl1;”
as §4, with “at Km” for “at Kin”, “[50 μMATP” for “[50 ┌M ATP”, “75 µM” for “75 ┌M”, “[…]” for “10 μl.”, “kinase reaction.” for “kinase reaction,”, “[…]” for “5 μl”
(§7) Plates are analyzed in a standard fluorescence plate reader (Teem or equivalent) using an excitation wavelength of 400 nm and emission wavelengths of 445 nm and 520 nm.

PAK3 = PAK3 (Homo sapiens, UniProt O75914); test: Z'Lyte fluorescence-based (FRET) PAK kinase assay, PAK3; format: biochemical; conditions: 100 μM ATP
Experimental: as §1, §2, §3, §4, §5, §6
as §1, with “non-phosphorylated but” for “non-phosphorylated bat”, “peptide (Z'Lyte™” for “peptide (Z′Lyte™”, “assay platform” for “assay platform;”
as §2, with “mM MgCl2;” for “nM MgCl1;”
as §4, with “at Km” for “at Kin”, “[50 μMATP” for “[50 ┌M ATP”, “75 µM” for “75 ┌M”, “[…]” for “10 μl.”, “kinase reaction.” for “kinase reaction,”, “[…]” for “5 μl”
as §7

PAK1 = PAK1 (Homo sapiens, UniProt Q13153); test: Z'Lyte fluorescence-based (FRET) PAK kinase assay, PAK1; format: biochemical; conditions: 50 μM ATP
Experimental: as §1, §2, §3, §4, §5, §6
as §1, with “non-phosphorylated but” for “non-phosphorylated bat”, “peptide (Z'Lyte™” for “peptide (Z′Lyte™”, “assay platform” for “assay platform;”
as §2, with “mM MgCl2;” for “nM MgCl1;”
as §4, with “at Km” for “at Kin”, “[50 μMATP” for “[50 ┌M ATP”, “75 µM” for “75 ┌M”, “[…]” for “10 μl.”, “kinase reaction.” for “kinase reaction,”, “[…]” for “5 μl”
as §7

PAK4 = PAK4 (Homo sapiens, UniProt O96013); test: Z'Lyte fluorescence-based (FRET) PAK kinase assay, PAK4; format: biochemical; conditions: 5 μM ATP
Experimental: as §1, §2, §3, §4, §5, §6
as §1, with “non-phosphorylated but” for “non-phosphorylated bat”, “peptide (Z'Lyte™” for “peptide (Z′Lyte™”, “assay platform” for “assay platform;”
as §2, with “mM MgCl2;” for “nM MgCl1;”
as §4, with “at Km” for “at Kin”, “[50 μMATP” for “[50 ┌M ATP”, “75 µM” for “75 ┌M”, “[…]” for “10 μl.”, “kinase reaction.” for “kinase reaction,”, “[…]” for “5 μl”
as §7

[1] = system: C57/black 6 mice temporal cortex slices; test: Slice electrophysiology assay (LTP, theta-burst stimulation); format: cell-based; conditions: 1 μM compound; temporal cortex slices of C57/black 6 mice
Experimental: coronal cortical slices (400 μm) containing temporal cortex from 2- to 3-month-old C57-Black-6 mice male littermates (from Elevage Janvier, FRANCE) are prepared and allowed to recover in oxygenated (95% O2 and 5% CO2) warm (30° C.) artificial cerebrospinal fluid (ACSF) containing 124 mM NaCl, 5 mM KCl, 1.25 mM, NaH2PO4, 1 mM MgCl2, 2 mM CaCl2, 26 mM NaHCO3, and 10 mM dextrose.
a 10 mM DMSO stock solution is prepared for each test compound and 100 μL aliquots are stored at −20° C. On the day of experiment an aliquot is thawed and vortexed for fresh solutions preparation. The final concentration of DMSO is adjusted to 0.1% all solutions, including control ACSF solution. […]
a stimulus is applied every 30 s with an intensity settled at 40% of the maximal amplitude responses. […] Potentiation of synaptic transmission is then monitored for an additional 40 minutes period. […]
following a 10 minutes control recording period (to verify baseline stability), the compound is perfused for 20 minutes. Then, LTP is triggered and the fEPSP amplitude will be recorded for an additional 40 minutes period in the presence of compound.
fEPSP amplitudes are measured as the difference between the baseline (before stimulation) and the maximal peak amplitude. The fEPSP are normalized as a percent of the mean averaged amplitude recorded over a 10 min control period, before compound application. […]

[2] = Table 1 of Example 100, 75 μM ATP
[3] = Table 1 of Example 29 (own compound numbering), 75 µM ATP
[4] = Table 1 of Example 29 (own compound numbering)

Sequence of PAK2 (Q13177 whole entry): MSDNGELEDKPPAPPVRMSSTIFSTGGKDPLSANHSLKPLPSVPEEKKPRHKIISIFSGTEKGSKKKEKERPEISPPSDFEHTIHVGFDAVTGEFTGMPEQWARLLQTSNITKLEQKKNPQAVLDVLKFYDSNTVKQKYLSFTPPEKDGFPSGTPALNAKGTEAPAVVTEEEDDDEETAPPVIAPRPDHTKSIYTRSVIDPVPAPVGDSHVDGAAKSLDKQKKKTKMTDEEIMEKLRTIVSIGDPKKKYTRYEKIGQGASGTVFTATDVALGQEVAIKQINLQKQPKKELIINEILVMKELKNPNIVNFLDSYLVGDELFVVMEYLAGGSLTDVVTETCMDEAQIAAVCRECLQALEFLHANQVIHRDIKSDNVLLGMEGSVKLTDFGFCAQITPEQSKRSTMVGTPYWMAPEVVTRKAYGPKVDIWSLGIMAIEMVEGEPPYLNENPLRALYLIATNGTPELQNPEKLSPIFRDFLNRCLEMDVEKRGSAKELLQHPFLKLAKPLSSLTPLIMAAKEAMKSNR
Sequence of PAK3 (O75914 whole entry): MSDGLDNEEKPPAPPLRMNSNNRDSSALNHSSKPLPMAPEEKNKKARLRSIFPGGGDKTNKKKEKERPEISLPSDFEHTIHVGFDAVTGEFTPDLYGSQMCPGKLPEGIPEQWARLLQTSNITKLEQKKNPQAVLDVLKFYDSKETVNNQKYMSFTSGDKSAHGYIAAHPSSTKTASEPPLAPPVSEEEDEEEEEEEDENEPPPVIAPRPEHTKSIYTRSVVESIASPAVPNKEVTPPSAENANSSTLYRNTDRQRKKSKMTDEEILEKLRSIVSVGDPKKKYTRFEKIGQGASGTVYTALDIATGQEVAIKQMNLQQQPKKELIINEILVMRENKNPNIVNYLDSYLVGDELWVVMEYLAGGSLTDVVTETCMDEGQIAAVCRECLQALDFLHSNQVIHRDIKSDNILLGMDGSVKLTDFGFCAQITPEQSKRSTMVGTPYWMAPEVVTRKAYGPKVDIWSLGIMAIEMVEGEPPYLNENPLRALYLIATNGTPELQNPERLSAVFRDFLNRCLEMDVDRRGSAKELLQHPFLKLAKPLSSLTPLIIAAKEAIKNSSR
Sequence of PAK1 (Q13153 whole entry): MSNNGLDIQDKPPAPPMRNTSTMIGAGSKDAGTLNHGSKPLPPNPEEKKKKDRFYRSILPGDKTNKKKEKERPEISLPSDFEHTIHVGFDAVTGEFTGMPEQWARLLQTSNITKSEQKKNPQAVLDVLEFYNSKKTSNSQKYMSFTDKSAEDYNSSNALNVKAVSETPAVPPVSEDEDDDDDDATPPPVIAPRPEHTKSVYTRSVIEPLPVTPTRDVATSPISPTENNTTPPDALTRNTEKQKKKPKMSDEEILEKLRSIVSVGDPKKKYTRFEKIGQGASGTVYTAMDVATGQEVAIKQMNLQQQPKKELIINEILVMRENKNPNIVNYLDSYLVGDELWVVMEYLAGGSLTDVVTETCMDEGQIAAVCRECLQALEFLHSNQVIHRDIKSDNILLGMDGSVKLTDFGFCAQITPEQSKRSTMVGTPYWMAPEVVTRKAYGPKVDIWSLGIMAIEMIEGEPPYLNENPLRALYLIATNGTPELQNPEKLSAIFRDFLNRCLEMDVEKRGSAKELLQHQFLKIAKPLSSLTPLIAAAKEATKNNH
Sequence of PAK4 (O96013 whole entry): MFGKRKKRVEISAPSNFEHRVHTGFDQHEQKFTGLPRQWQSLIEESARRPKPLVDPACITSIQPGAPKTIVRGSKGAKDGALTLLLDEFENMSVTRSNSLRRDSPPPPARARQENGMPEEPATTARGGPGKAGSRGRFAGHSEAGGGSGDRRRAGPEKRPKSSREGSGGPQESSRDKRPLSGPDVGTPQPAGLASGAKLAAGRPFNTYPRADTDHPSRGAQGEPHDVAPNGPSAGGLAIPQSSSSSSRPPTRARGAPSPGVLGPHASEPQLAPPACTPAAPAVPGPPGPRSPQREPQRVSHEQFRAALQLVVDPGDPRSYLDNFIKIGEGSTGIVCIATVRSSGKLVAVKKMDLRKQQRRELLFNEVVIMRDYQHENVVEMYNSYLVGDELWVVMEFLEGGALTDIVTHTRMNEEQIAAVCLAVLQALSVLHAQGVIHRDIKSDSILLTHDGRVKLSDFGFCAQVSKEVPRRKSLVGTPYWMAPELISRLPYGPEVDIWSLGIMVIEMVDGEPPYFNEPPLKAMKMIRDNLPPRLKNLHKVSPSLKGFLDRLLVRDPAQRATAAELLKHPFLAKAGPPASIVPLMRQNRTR

Row | pIC50 (PAK2; [2]) | pIC50 (PAK3; Table 1 of Example 100) | pIC50 (PAK1; Table 1 of Example 100) | pIC50 (PAK4; Table 1 of Example 100) | pIC50 (PAK2; [3]) | pIC50 (PAK3; [4]) | pIC50 (PAK1; [4]) | pIC50 (PAK4; [4]) | Compound | LTP compared to the baseline in a theta-burst stimulation protocol in the cortex [1]
1 | 5.00 to 6.00 | < 5.00 | 5.00 to 6.00 | 5.00 to 6.00 | – | – | – | – | CC(c1ccccc1)n1c(=O)ccc2cnc(Nc3ccc(N4CCN(C)CC4)cc3)nc21 (stereo not drawn) [Compound 48] | –
2 | > 6.00 | 5.00 to 6.00 | > 6.00 | > 6.00 | – | – | – | – | CN1CCN(c2ccc(Nc3ncc4ccc(=O)n(CCc5ccccc5)c4n3)cc2)CC1 [Compound 49] | –
3 | 5.00 to 6.00 | 5.00 to 6.00 | 5.00 to 6.00 | 5.00 to 6.00 | – | – | – | – | CN1CCN(c2ccc(Nc3ncc4ccc(=O)n(CC(=O)c5ccccc5)c4n3)cc2)CC1 [Compound 50] | –
4 | 5.00 to 6.00 | < 5.00 | 5.00 to 6.00 | 5.00 to 6.00 | – | – | – | – | Cc1cccnc1Cn1c(=O)ccc2cnc(Nc3ccc(N4CCN(C)CC4)cc3)nc21 [Compound 52] | –
5 | 5.00 to 6.00 | 5.00 to 6.00 | > 6.00 | 5.00 to 6.00 | – | – | – | – | CN1CCN(c2ccc(Nc3ncc4ccc(=O)n(Cc5ccccc5-n5cccn5)c4n3)cc2)CC1 [Compound 53] | –
6 | 5.00 to 6.00 | 5.00 to 6.00 | > 6.00 | 5.00 to 6.00 | – | – | – | – | COc1ccc(F)cc1Cn1c(=O)ccc2cnc(Nc3ccc(N4CCN(C)CC4)cc3)nc21 [Compound 54] | –
7 | – | – | – | – | 5.00 to 6.00 | < 5.00 | 5.00 to 6.00 | 5.00 to 6.00 | CC(c1ccccc1)n1c(=O)ccc2cnc(Nc3ccc(N4CCN(C)CC4)cc3)nc21 (stereo not drawn) [Compound 102] | –
8 | – | – | – | – | > 6.00 | 5.00 to 6.00 | > 6.00 | > 6.00 | CN1CCN(c2ccc(Nc3ncc4ccc(=O)n(CCc5ccccc5)c4n3)cc2)CC1 [Compound 103] | –
9 | – | – | – | – | 5.00 to 6.00 | 5.00 to 6.00 | 5.00 to 6.00 | 5.00 to 6.00 | CN1CCN(c2ccc(Nc3ncc4ccc(=O)n(CC(=O)c5ccccc5)c4n3)cc2)CC1 [Compound 104] | –
10 | – | – | – | – | 5.00 to 6.00 | < 5.00 | 5.00 to 6.00 | 5.00 to 6.00 | Cc1cccnc1Cn1c(=O)ccc2cnc(Nc3ccc(N4CCN(C)CC4)cc3)nc21 [Compound 106] | –
11 | – | – | – | – | 5.00 to 6.00 | 5.00 to 6.00 | > 6.00 | 5.00 to 6.00 | CN1CCN(c2ccc(Nc3ncc4ccc(=O)n(Cc5ccccc5-n5cccn5)c4n3)cc2)CC1 [Compound 107] | –
12 | – | – | – | – | 5.00 to 6.00 | 5.00 to 6.00 | > 6.00 | 5.00 to 6.00 | COc1ccc(F)cc1Cn1c(=O)ccc2cnc(Nc3ccc(N4CCN(C)CC4)cc3)nc21 [Compound 108] | –
13 | – | – | – | – | > 6.00 | 5.00 to 6.00 | > 6.00 | > 6.00 | CN1CCN(c2ccc(Nc3ncc4ccc(=O)n(Cc5c(O)cccc5Cl)c4n3)cc2)CC1 [Compound 109] | –
14 | – | – | – | – | > 6.00 | > 6.00 | > 6.00 | > 6.00 | CN1CCCC(Nc2ccc(Nc3ncc4ccc(=O)n(Cc5ccccc5C(F)(F)F)c4n3)cc2)C1 (stereo not drawn) [Compound 115] | –
15 | – | – | – | – | > 6.00 | > 6.00 | > 6.00 | > 6.00 | Cc1ccccc1Cn1c(=O)ccc2cnc(Nc3ccc(N4CCN(C)CC4)cc3)nc21 [Compound 117] | –
16 | – | – | – | – | 5.00 to 6.00 | 5.00 to 6.00 | > 6.00 | > 6.00 | Cc1cccc(O)c1Cn1c(=O)ccc2cnc(Nc3ccc(N4CCN(C)CC4)cc3)nc21 [Compound 119] | –
17 | – | – | – | – | 5.00 to 6.00 | 5.00 to 6.00 | > 6.00 | 5.00 to 6.00 | CN1CCN(c2ccc(Nc3ncc4ccc(=O)n(Cc5ccccc5-c5ncno5)c4n3)cc2)CC1 [Compound 127] | –
18 | – | – | – | – | 5.00 to 6.00 | 5.00 to 6.00 | > 6.00 | 5.00 to 6.00 | O=c1ccc2cnc(Nc3ccc(N4CCNCC4)c(F)c3)nc2n1Cc1ccccc1-c1ncno1 [Compound 132] | –
19 | – | – | – | – | 5.00 to 6.00 | > 6.00 | > 6.00 | 5.00 to 6.00 | CN1CCN(c2ccc(Nc3ncc4ccc(=O)n(Cc5c(F)cccc5[S+](C)[O-])c4n3)cc2)CC1 (stereo not drawn) [Compound 139] | –
20 | – | – | – | – | > 6.00 | > 6.00 | > 6.00 | 5.00 to 6.00 | O=c1c(-c2ccccc2)cc2cnc(Nc3ccc(NC4CCCNC4)cc3)nc2n1Cc1ccccc1C(F)(F)F (stereo not drawn) [Compound 167] | –
21 | – | – | – | – | – | – | – | – | COc1cc(Nc2nccc(-c3ccc(NCCN)nc3)n2)cc(OC)c1OC [Compound A, N^1-(5-(2-(3,4,5-trimethoxyphenylamino)pyrimidin-4-yl)pyridin-2-yl)ethane-1,2-diamine] | increased LTP
22 | > 6.00 | > 6.00 | > 6.00 | > 6.00 | – | – | – | – | CN1CCCC(Nc2ccc(Nc3ncc4ccc(=O)n(Cc5ccccc5C(F)(F)F)c4n3)cc2)C1 (stereo not drawn) [compound 61] | –
23 | – | – | – | – | 5.00 to 6.00 | 5.00 to 6.00 | 5.00 to 6.00 | 5.00 to 6.00 | O=c1ccc2cnc(Nc3ccc(N4CCNCC4)cc3)nc2n1C1CCCc2ccccc21 (stereo not drawn) [compound 61] | –
24 | > 6.00 | > 6.00 | > 6.00 | 5.00 to 6.00 | – | – | – | – | O=c1c(-c2ccccc2)cc2cnc(Nc3ccc(NC4CCCNC4)cc3)nc2n1Cc1ccccc1C(F)(F)F (stereo not drawn) [compound 95] | –
